Test results taken from patent US20210228562A1, “IRAK DEGRADERS AND USES THEREOF” (Kymera Therapeutics, Inc., priority 2019, published 2021).

How the values were obtained:
Type in all cases: cell-based
[1] = target: T1, Ikaros (protein product of gene IKZF1) (Homo sapiens, UniProt Q13422+Q96SW2); experiment: Quantification of Ikaros degradation in OCI-LY10 cells (quantitative immunoblotting); conditions: 6 h treatment
T1 construct: endogenous in cells; host or cells: OCI-LY10
Procedure: (§1) Degradation of Ikaros (protein product of gene IKZF1) and Aiolos (protein product of gene IKZF3) were determined by quantitative immunoblotting as follows. OCI-LY10 cells, 2×10^6 cells/well, were treated with listed concentrations of IRAK4 degraders or control compounds in 6 well plates for 6 h. Cells were collected, washed with cold PBS, lysed in RIPA buffer (Boston BioProducts BP-115D) with protease/phosphatase inhibitor cocktail (Roche 05892791001/Roche 04906837001) and centrifuged at 13000 RPM for 20 min to precipitate insoluble material. The supernatant fraction was diluted in SDS-PAGE loading buffer (Beyotime Bio P0015) and 20 μL of each sample was resolved on 4-12% Bis-Tris SDS-PAGE gels (Novex, WG1402BOX). Resolved samples were transferred to nitrocellulose membranes by wet electro-transfer method at 250 mV for 1.5 h. The membrane was blocked with LICOR blocking buffer (LI-COR, 927-50000) for 1 hour, washed three times with TBST (CST #99975) for 5 minutes each and incubated with primary antibody prepared in block buffer with 0.1% Tween-20 (Solarbio, P8220) at 4° C. overnight. Ikaros antibody was rabbit monoclonal D6N9Y (CST #14859), at 1:1000 dilution. Aiolos antibody was rabbit monoclonal D1C1E (CST #15103), at 1:1000 dilution. Signal was normalized to mouse anti-beta-Actin monoclonal 8H10D10 (CST #3700) used at 1:10,000 dilution. After incubation in primary antibodies, membranes were washed three times with TBST, 5 minutes each, incubated with fluorescently labeled secondary antibodies anti-rabbit IgG (Licor, 926-32211) at 1:5000 dilution; anti-mouse IgG (LI-COR, 926-68070) at 1:5000 dilution, for 1 hour at RT. After incubation in secondary, membranes were washed three times with TBST, 5 minutes each and read on LICOR Odyssey imager. Data was reported as signal for Ikaros or Aiolos relative to signal for actin, and normalized to DMSO-treated control.

[2] = target: T2, Aiolos (protein product of gene IKZF3) (Homo sapiens, UniProt Q96SW2+Q9UKT9); experiment: Quantification of Aiolos degradation in OCI-LY10 cells (quantitative immunoblotting); conditions: 6 h treatment
T2 construct: endogenous in cells; host or cells: OCI-LY10
T2 sequence (Q9UKT9 whole entry): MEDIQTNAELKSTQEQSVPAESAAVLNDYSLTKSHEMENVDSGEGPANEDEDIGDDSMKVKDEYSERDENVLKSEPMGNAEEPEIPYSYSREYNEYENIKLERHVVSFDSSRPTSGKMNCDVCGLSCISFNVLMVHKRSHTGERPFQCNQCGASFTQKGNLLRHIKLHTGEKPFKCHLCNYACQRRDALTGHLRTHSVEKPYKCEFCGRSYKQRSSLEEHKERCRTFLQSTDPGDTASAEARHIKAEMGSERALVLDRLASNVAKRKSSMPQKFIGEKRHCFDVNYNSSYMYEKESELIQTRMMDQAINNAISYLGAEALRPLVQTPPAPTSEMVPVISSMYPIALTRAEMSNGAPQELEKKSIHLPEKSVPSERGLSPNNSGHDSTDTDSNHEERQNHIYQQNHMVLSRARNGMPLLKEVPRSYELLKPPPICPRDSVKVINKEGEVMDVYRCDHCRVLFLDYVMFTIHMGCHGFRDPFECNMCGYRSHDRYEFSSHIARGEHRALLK
T2 sequence (Q96SW2 whole entry): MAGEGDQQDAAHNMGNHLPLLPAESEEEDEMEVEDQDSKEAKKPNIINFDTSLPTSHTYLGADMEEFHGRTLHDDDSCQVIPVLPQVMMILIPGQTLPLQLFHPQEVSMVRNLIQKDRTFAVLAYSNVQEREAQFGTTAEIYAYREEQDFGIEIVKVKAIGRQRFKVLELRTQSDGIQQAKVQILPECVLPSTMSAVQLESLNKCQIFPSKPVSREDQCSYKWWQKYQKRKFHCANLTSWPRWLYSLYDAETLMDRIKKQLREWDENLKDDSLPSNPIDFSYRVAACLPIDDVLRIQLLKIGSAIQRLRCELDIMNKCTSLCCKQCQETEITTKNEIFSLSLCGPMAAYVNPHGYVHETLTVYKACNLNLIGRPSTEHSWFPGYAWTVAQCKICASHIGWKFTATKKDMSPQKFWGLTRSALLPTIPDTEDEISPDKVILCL
T2 sequence (Q16531 whole entry partner): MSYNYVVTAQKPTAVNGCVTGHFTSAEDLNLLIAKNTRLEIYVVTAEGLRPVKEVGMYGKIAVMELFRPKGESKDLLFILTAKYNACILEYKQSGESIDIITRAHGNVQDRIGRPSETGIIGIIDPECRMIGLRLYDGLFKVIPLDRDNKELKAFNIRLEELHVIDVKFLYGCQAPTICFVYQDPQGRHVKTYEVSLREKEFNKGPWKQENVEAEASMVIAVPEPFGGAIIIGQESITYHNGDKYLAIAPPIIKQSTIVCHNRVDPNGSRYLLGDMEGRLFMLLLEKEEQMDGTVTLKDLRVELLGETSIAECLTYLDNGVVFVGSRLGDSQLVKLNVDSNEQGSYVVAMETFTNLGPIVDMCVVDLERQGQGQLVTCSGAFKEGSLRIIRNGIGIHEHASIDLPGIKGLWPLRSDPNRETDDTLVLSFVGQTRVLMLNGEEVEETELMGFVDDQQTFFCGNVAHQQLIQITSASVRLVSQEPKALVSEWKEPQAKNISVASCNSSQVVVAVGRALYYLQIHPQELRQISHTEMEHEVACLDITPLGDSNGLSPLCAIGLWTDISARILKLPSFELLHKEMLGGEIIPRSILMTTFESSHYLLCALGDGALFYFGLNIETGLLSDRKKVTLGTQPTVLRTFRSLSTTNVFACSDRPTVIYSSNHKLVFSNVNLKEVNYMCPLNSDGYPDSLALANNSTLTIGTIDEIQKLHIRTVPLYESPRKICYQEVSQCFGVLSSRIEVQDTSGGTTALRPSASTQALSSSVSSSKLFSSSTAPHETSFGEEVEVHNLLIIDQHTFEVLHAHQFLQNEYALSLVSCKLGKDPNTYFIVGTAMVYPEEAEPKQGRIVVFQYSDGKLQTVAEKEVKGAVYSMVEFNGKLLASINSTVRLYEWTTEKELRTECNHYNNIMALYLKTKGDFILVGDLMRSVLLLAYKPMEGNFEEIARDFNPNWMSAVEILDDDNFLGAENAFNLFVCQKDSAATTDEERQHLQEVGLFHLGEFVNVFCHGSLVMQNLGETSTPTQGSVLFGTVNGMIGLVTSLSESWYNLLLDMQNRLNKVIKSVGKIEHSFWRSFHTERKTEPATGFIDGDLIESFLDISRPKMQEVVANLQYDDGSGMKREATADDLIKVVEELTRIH
Procedure: as §1

IRAK4 = target: T3, IRAK4 (Homo sapiens, UniProt Q9NWZ3); experiment: IRAK4 MSD Degradation in OCI-LY10; conditions: OCI-LY10 cells, 24 hrs incubation; read-out: IRAK4 degradation in OCI-LY10 at 24 hrs: DC50
T3 construct: endogenous in cells; host or cells: OCI-LY10
T3 sequence (Q9NWZ3 1-460): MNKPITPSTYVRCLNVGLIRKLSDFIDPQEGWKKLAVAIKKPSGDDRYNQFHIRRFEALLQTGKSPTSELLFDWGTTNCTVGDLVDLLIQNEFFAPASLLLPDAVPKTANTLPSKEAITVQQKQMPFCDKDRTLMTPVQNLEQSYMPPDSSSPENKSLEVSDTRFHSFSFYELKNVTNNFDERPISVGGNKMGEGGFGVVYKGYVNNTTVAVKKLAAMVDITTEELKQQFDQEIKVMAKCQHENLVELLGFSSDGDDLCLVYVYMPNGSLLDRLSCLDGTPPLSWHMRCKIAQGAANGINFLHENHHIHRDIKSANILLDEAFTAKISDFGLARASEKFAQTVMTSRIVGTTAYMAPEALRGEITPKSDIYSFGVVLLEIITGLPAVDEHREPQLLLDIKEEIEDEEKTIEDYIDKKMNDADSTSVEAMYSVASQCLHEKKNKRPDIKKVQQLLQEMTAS
Procedure: Degradation of IRAK4 in OCI-LY10 was quantitatively measured using Meso Scale Discovery technology. OCI-LY10 cells were seeded in 96-well plates (Corning 3799) with a density of 300,000 cells per well in 100 μL fresh media. Compounds were then added to the assay plates with a final top concentration of 1 to 10 μM in a 1:3 dilution series with total of 8 doses. The assay plates were then incubated for 4 to 24 hours at 37° C. under 5% CO2. The assay plates were then centrifuged for 5 minutes and the cell pellets were treated with 100 μL/well RIPA lysis buffer (Boston BioProducts BP-115D) with proteinase inhibitors. To prepare MSD assay plates (Meso Scale Discovery Catalog number L15XA-3), the plates were coated with 2 μg/mL capture antibody (mouse Anti-IRAK4 antibody [2H9], ab119942) in PBS, at 40 μL/well. The plates were then incubated overnight at 4° C., washed 3 times with 150 μL/well TBST buffer (Cell Signaling Technology, Catalog number 9997S) and blocked with 150 μL/well blocking buffer (Meso Scale Discovery Catalog number R93BA-4). Cell lysates were then added to MSD assay plates and the plates were incubated at room temperature for 1 hour. The plates were then washed 3 times with 150 μL/well TBST buffer and 25 μL/well primary detection antibody (rabbit Anti-IRAK4 antibody [Y279], from Abcam. Catalog number ab32511, 1 μg/mL). The assay plates were then incubated at room temperature for 1 hour, washed 3 times with 150 μL/well TBST buffer and 25 μL/well secondary detection antibody, SULFO-TAG anti-rabbit antibody were added (anti rabbit antibody from Meso Scale Discovery, Catalog number R32AB-1, 1 μg/mL). The assay plates were then incubated at room temperature for 1 hour, washed 3 times with 150 μL/well TBST buffer, and 150 μL/well MSD reading buffer (Meso Scale Discovery catalog number R92TC-2) was added. The plates were then analyzed by a MSD reader (Meso Scale Discovery, Model Quick Plex SQ 120). The data was then analyzed by software Prism 7.0 from GraphPad and the dose-depended IRAK4 degradation were fit using a three-parameter logistic equation to calculate DC50.

T1 sequence (Q13422 whole entry): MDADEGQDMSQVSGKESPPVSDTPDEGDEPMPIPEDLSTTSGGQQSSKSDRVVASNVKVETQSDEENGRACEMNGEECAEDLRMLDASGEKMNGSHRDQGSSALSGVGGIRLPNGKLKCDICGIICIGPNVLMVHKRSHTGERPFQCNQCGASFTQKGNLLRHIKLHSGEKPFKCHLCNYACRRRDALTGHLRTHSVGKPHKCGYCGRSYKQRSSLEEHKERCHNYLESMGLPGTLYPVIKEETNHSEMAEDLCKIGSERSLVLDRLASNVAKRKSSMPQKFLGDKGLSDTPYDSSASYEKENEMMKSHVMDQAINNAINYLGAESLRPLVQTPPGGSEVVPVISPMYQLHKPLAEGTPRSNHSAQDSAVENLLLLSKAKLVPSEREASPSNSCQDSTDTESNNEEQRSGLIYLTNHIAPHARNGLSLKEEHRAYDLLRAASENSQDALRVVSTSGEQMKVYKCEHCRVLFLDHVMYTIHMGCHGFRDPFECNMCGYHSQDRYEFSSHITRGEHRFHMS
T1 sequence (Q96SW2 whole entry): as the sequence (Q96SW2 whole entry) above
T1 sequence (Q16531 whole entry partner): as the sequence (Q16531 whole entry partner) above

DC50 [1] [nM]	DC50 [2] [nM]	DC50 (IRAK4) [nM]	Structure (SMILES)
< 50	< 50		CC(C)(O)c1cc2nc(N3CC(CN4CCC5(CC4)CC(CNc4cccc6c4C(=O)N(C4CCC(=O)NC4=O)C6=O)C5)C3)sc2cc1NC(=O)c1cccc(C(F)(F)F)n1 (centres unmarked) [I-38]
		> 1000	CC(C)(O)c1cc2nc([C@H]3CC[C@H](CN4CC5(CC(CCNc6cccc7c6C(=O)N(C6CCC(=O)NC6=O)C7=O)C5)C4)CC3)sc2cc1NC(=O)c1cnn2ccc(N3C[C@H]4C[C@@H]3CO4)nc12 (some centres unmarked) [I-61]
< 50	< 50		COc1cc2nc([C@H]3CC[C@H](CN4CCC(O[C@H]5C[C@H](Nc6cccc7c6C(=O)N(C6CCC(=O)NC6=O)C7=O)C5)CC4)CC3)sc2cc1NC(=O)c1cccc(C(F)(F)F)n1 (some centres unmarked) [I-39]
< 50	< 50		CC(C)(O)c1cc2nc(N3CC(CN4CC5(CC(CNc6cccc7c6C(=O)N(C6CCC(=O)NC6=O)C7=O)C5)C4)C3)sc2cc1NC(=O)c1cccc(C(F)(F)F)n1 (centres unmarked) [I-44]
< 50	< 50	< 50	CC(C)(O)c1cc2nc([C@H]3CC[C@H](CN4CC5(CC(CCNc6cccc7c6C(=O)N([C@H]6CCC(=O)NC6=O)C7=O)C5)C4)CC3)sc2cc1NC(=O)c1cccc(C(F)(F)F)n1 (single isomer, unassigned) [I-66]
< 50	< 50	50 to 100	CC(C)(O)c1cc2nc([C@H]3CC[C@@H](CN4CC5(CC(CCNc6cccc7c6C(=O)N(C6CCC(=O)NC6=O)C7=O)C5)C4)CC3)sc2cc1NC(=O)c1cccc(C(F)(F)F)n1 (stereo partly drawn) [I-62, N-(2-((1S,4S)-4-((6-(2-((2-(2,6-dioxopiperidin-3-yl)-1,3-dioxoisoindolin-4-yl)amino)ethyl)-2-azaspiro[3.3]heptan-2-yl)methyl)cyclohexyl)-5-(2-hydroxypropan-2-yl)benzo[d]thiazol-6-yl)-6-(trifluoromethyl)picolinamide]
< 50	< 50	< 50	CC(C)(O)c1cc2nc([C@H]3CC[C@H](CN4CC5(CC(CCNc6cccc7c6C(=O)N(C6CCC(=O)NC6=O)C7=O)C5)C4)CC3)sc2cc1NC(=O)c1cccc(C(C)(F)F)n1 (some centres unmarked) [I-56]
< 50	< 50		CC(C)(O)c1cc2nc(N3CCC(CN4CC5(CC(CCNc6cccc7c6C(=O)N(C6CCC(=O)NC6=O)C7=O)C5)C4)CC3)sc2cc1NC(=O)c1cccc(C(F)(F)F)n1 (centres unmarked) [I-36]
< 50	< 50		CC(C)(O)c1nc2nc([C@H]3CC[C@H](CN4CC5(CC(CCNc6cccc7c6C(=O)N(C6CCC(=O)NC6=O)C7=O)C5)C4)CC3)sc2cc1NC(=O)c1cccc(C(F)(F)F)n1 (some centres unmarked) [I-43]
< 50	< 50	< 50	CC(C)(O)c1cc2nc([C@H]3CC[C@H](CN4CC5(CC(CCNc6cccc7c6C(=O)N([C@@H]6CCC(=O)NC6=O)C7=O)C5)C4)CC3)sc2cc1NC(=O)c1cccc(C(F)(F)F)n1 (single isomer, unassigned) [I-65]

Further lines, the molecule ahead of its results:

Structure (SMILES)	DC50 [1] [nM]	DC50 [2] [nM]	DC50 (IRAK4) [nM]
CC(C)(O)c1cc2nc(N3CCC(CN4CCC5(CC4)CC(Nc4cccc6c4C(=O)N(C4CCC(=O)NC4=O)C6=O)C5)CC3)sc2cc1NC(=O)c1cccc(C(F)(F)F)n1 (centres unmarked) [I-4]	< 50	< 50	
CC(C)(O)c1cc2nc([C@H]3CC[C@H](CN4CC5(CC(CCCNc6cccc7c6C(=O)N(C6CCC(=O)NC6=O)C7=O)C5)C4)CC3)sc2cc1NC(=O)c1cccc(C(F)(F)F)n1 (some centres unmarked) [I-13]	< 50	< 50	
COc1cc2nc([C@H]3CC[C@H](CN4CC5(CC(CCNc6cccc7c6C(=O)N(C6CCC(=O)NC6=O)C7=O)C5)C4)CC3)sc2cc1NC(=O)c1ccnc(C)n1 (some centres unmarked) [I-16]	< 50		
COc1cc2nc([C@H]3CC[C@H](CN4CCC5(CC4)CC(CCNc4cccc6c4C(=O)N(C4CCC(=O)NC4=O)C6=O)C5)CC3)sc2cc1NC(=O)c1cccc(C)n1 (some centres unmarked) [I-12]	< 50	< 50	
COc1cc2nc([C@H]3CC[C@H](CN4CC5(CC(CCNc6cccc7c6C(=O)N(C6CCC(=O)NC6=O)C7=O)C5)C4)CC3)sc2cc1NC(=O)c1cccc(C(C)(F)F)n1 (some centres unmarked) [I-8]	< 50	< 50	
COc1cc2nc([C@H]3CC[C@H](CN4CCC5(CC4)CC(CCNc4cccc6c4C(=O)N(C4CCC(=O)NC4=O)C6=O)C5)CC3)sc2cc1NC(=O)c1ccnc(C)n1 (some centres unmarked) [I-17]	< 50	< 50	
COc1cc2nc([C@H]3CC[C@H](CN4CC5(CC(CCNc6cccc7c6C(=O)N(C6CCC(=O)NC6=O)C7=O)C5)C4)CC3)sc2cc1NC(=O)c1cccc(C(F)(F)F)n1 (some centres unmarked) [I-10]	< 50	< 50	
COc1cc2nc([C@H]3CC[C@H](CN4CCC5(CC4)CC(Nc4cccc6c4C(=O)N(C4CCC(=O)NC4=O)C6=O)C5)CC3)sc2cc1NC(=O)c1cccc(C)n1 (some centres unmarked) [I-15]	100 to 500	50 to 100	
CN(CCCO[C@H]1C[C@H](Nc2cccc3c2C(=O)N(C2CCC(=O)NC2=O)C3=O)C1)C[C@H]1CC[C@H](c2nc3cc(C(C)(C)O)c(NC(=O)c4cccc(C(F)(F)F)n4)cc3s2)CC1 (some centres unmarked) [I-7]	< 50	< 50	
COc1cc2nc([C@H]3CC[C@H](CN(C)[C@H]4CC[C@@]5(CC4)C[C@@H](CNc4cccc6c4C(=O)N(C4CCC(=O)NC4=O)C6=O)C5)CC3)sc2cc1NC(=O)c1cccc(C(F)(F)F)n1 (some centres unmarked) [I-14]	50 to 100	< 50	
CC(C)(O)c1cc2nc([C@H]3CC[C@H](CN4CCC5(CC4)CC(CCNc4cccc6c4C(=O)N(C4CCC(=O)NC4=O)C6=O)C5)CC3)sc2cc1NC(=O)c1cccc(C(F)(F)F)n1 (some centres unmarked) [I-5]	< 50	< 50	
CC(C)(O)c1cc2nc(N3CCC(CN4CCC5(CC4)CC(CCNc4cccc6c4C(=O)N(C4CCC(=O)NC4=O)C6=O)C5)CC3)sc2cc1NC(=O)c1cccc(C(F)(F)F)n1 (centres unmarked) [I-18]	< 50	< 50	
COc1cc2nc([C@H]3CC[C@H](CN4CC5(CCC(CNc6cccc7c6C(=O)N(C6CCC(=O)NC6=O)C7=O)CC5)C4)CC3)sc2cc1NC(=O)c1cccc(C(C)(F)F)n1 (some centres unmarked) [I-11]	100 to 500	50 to 100	
COc1cc2nc([C@H]3CC[C@H](CN4CCC(CCNc5cccc6c5C(=O)N(C5CCC(=O)NC5=O)C6=O)CC4)CC3)sc2cc1NC(=O)c1cccc(C(C)(F)F)n1 (some centres unmarked) [I-9]	50 to 100	< 50	
